Results published in ChEMBL document CHEMBL5338747, “Discovery of Quaternized Pyridine-Thiazole-Pleuromutilin Derivatives with Broad-Spectrum Antibacterial and Potent Anti-MRSA Activity” (J Med Chem, 2023).
Values after ≈ are worked out from the molar mass of the structure shown. Active and inactive are the calls of the source. The rule behind the calls is not given here.

Legend:
Metamycoplasma hominis = assay: Anti-mycoplasma activity against Mycoplasma hominis PG-21 ATCC23114 assessed as inhibition of mycoplasma growth measured after 7 days by broth microdilution method; assay type: functional; settings: PG-21 ATCC23114, 168 h, time 7 day
[1] = tested on: Mycoplasmoides gallisepticum; assay: Anti-mycoplasma activity against Mycoplasma gallisepticum R NCTC10115 assessed as inhibition of mycoplasma growth measured after 7 days by broth microdilution method; assay type: functional; settings: R NCTC10115, 168 h, time 7 day
[2] = tested on: Mesomycoplasma hyopneumoniae; assay: Anti-mycoplasma activity against Mycoplasma hyopneumoniae J NCTC10110 assessed as inhibition of mycoplasma growth measured after 7 days by broth microdilution method; assay type: functional; settings: J NCTC10110, 168 h, time 7 day
[3] = tested on: Mesomycoplasma hyopneumoniae; assay: Anti-mycoplasma activity against Mycoplasma hyopneumoniae LH assessed as inhibition of mycoplasma growth measured after 7 days by broth microdilution method; assay type: functional; settings: 168 h, time 7 day
Mesomycoplasma hyorhinis = assay: Anti-mycoplasma activity against Mycoplasma hyorhinis BTS-7 NCTC10130 assessed as inhibition of mycoplasma growth measured after 7 days by broth microdilution method; assay type: functional; settings: BTS-7 NCTC10130, 168 h, time 7 day
[4] = Aqueous solubility of the compound in physiological saline measured after 12 hrs by UV spectrophotometric analysis; assay type: physicochemical
Mycoplasmopsis synoviae = assay: Anti-mycoplasma activity against Mycoplasma synoviae WVU1853 NCTC10124 assessed as inhibition of mycoplasma growth measured after 7 days by broth microdilution method; assay type: functional; settings: WVU1853 NCTC10124, 168 h, time 7 day
Mycoplasma genitalium = assay: Anti-mycoplasma activity against Mycoplasma genitalium G37 ATCC33530 assessed as inhibition of mycoplasma growth measured after 7 days by broth microdilution method; assay type: functional; settings: Mycoplasmoides genitalium, G37 ATCC33530, 168 h; time 7 day
[5] = tested on: Mycoplasmoides pneumoniae; assay: Anti-mycoplasma activity against Mycoplasma pneumoniae M129 ATCC15531 assessed as inhibition of mycoplasma growth measured after 7 days by broth microdilution method; assay type: functional; settings: M129 ATCC15531, 168 h, time 7 day
Escherichia coli [6] = assay: Antibacterial activity against Escherichia coli CMCC 44103 assessed as inhibition of bacterial growth incubated for 24 hrs by broth microdilution method; assay type: functional
Staphylococcus aureus [7] = assay: Antibacterial activity against methicillin-resistant Staphylococcus aureus 596 assessed as inhibition of bacterial growth incubated for 24 hrs by broth microdilution method; assay type: functional
Staphylococcus aureus [8] = assay: Antibacterial activity against methicillin-resistant Staphylococcus aureus 222 assessed as inhibition of bacterial growth incubated for 24 hrs by broth microdilution method; assay type: functional
[9] = tested on: Staphylococcus epidermidis; assay: Antibacterial activity against methicillin-resistant Staphylococcus epidermidis ATCC 51625 assessed as inhibition of bacterial growth incubated for 24 hrs by broth microdilution method; assay type: functional
Staphylococcus aureus [10] = assay: Antibacterial activity against methicillin-resistant Staphylococcus aureus ATCC 33591 assessed as inhibition of bacterial growth incubated for 24 hrs by broth microdilution method; assay type: functional
Staphylococcus aureus [11] = assay: Antibacterial activity against methicillin-resistant Staphylococcus aureus ATCC 43300 assessed as inhibition of bacterial growth incubated for 24 hrs by broth microdilution method; assay type: functional
Staphylococcus aureus [12] = assay: Antibacterial activity against methicillin-resistant Staphylococcus aureus 575 assessed as inhibition of bacterial growth incubated for 24 hrs by broth microdilution method; assay type: functional
Salmonella enterica = assay: Antibacterial activity against Salmonella enterica ATCC 14028 assessed as inhibition of bacterial growth incubated for 24 hrs by broth microdilution method; assay type: functional
Enterococcus = assay: Antibacterial activity against vancomycin-resistant Enterococcus 80 assessed as inhibition of bacterial growth incubated for 24 hrs by broth microdilution method; assay type: functional
[13] = Cytotoxicity against human HEK293 cells assessed as reduction in cell viability measured after 48 hrs by CCK8 assay; assay type: toxicity, cell-based
Staphylococcus aureus [14] = assay: Antibacterial activity against methicillin-resistant Staphylococcus aureus 171 assessed as inhibition of bacterial growth incubated for 24 hrs by broth microdilution method; assay type: functional
Staphylococcus aureus [15] = assay: Antibacterial activity against […] assessed as inhibition of bacterial growth incubated for 24 hrs by broth microdilution method; assay type: functional; settings: ATCC 29213
[16] = Cytotoxicity against human A549 cells assessed as reduction in cell viability measured after 48 hrs by CCK8 assay; assay type: toxicity, cell-based
[17] = Cytotoxicity against human HepG2 cells assessed as reduction in cell viability measured after 48 hrs by CCK8 assay; assay type: toxicity, cell-based
Acinetobacter baumannii [18] = assay: Antibacterial activity against Acinetobacter baumannii ATCC 19606 assessed as inhibition of bacterial growth incubated for 24 hrs by broth microdilution method; assay type: functional
Klebsiella pneumoniae = assay: Antibacterial activity against multidrug-resistant Klebsiella pneumoniae 893 assessed as inhibition of bacterial growth incubated for 24 hrs by broth microdilution method; assay type: functional
Escherichia coli [19] = assay: Antibacterial activity against Escherichia coli ATCC 25922 assessed as inhibition of bacterial growth incubated for 24 hrs by broth microdilution method; assay type: functional
Staphylococcus aureus [20] = assay: Antibacterial activity against methicillin-resistant Staphylococcus aureus 206 assessed as inhibition of bacterial growth incubated for 24 hrs by broth microdilution method; assay type: functional
Acinetobacter baumannii [21] = assay: Antibacterial activity against carbapenem-resistant Acinetobacter baumannii 882 assessed as inhibition of bacterial growth incubated for 24 hrs by broth microdilution method; assay type: functional
Pseudomonas aeruginosa = assay: Antibacterial activity against multidrug-resistant Pseudomonas aeruginosa 126 assessed as inhibition of bacterial growth incubated for 24 hrs by broth microdilution method; assay type: functional
Staphylococcus aureus [22] = assay: Disruption of biofilm formation in methicillin-resistant Staphylococcus aureus ATCC 33591 assessed as inhibition of biofilm formation at 4XMIC measured after 24 hrs by crystal violet staining based analysis; assay type: functional
Staphylococcus aureus [23] = assay: Antibacterial activity against methicillin-resistant Staphylococcus aureus ATCC 33591 infected in ip dosed Kunming mouse assessed as protection against bacterial infection administered for 7 days starting from 1 hr post-infection; assay type: functional
Staphylococcus aureus [24] = assay: Antibacterial activity against methicillin-resistant Staphylococcus aureus ATCC 33591 infected in Kunming mouse assessed as reduction in bacterial load in lungs at 10 mg/kg, ip for 2 days starting from 1 hr post-infection by hematoxylin-eosin staining based analysis; assay type: functional, organism-based; settings: time 2.0 day
Staphylococcus aureus [25] = assay: Antibacterial activity against methicillin-resistant Staphylococcus aureus ATCC 33591 infected in Kunming mouse assessed as animal survival rate at 5 mg/kg, ip for 7 days starting from 1 hr post-infection; assay type: functional; settings: time 7.0 day
Escherichia coli [26] = assay: Disruption of biofilm formation in Escherichia coli ATCC 25922 assessed as inhibition of biofilm formation at MIC measured after 24 hrs by crystal violet staining based analysis; assay type: functional
Staphylococcus aureus [27] = assay: Disruption of biofilm formation in methicillin-resistant Staphylococcus aureus ATCC 33591 assessed as inhibition of biofilm formation at MIC measured after 24 hrs by crystal violet staining based analysis; assay type: functional
Staphylococcus aureus [28] = assay: Antibacterial activity against methicillin-resistant Staphylococcus aureus ATCC 33591 infected in Kunming mouse assessed as reduction in bacterial load in liver at 10 mg/kg, ip for 2 days starting from 1 hr post-infection by hematoxylin-eosin staining based analysis; assay type: functional, organism-based; settings: time 2.0 day
Escherichia coli [29] = assay: Disruption of biofilm formation in Escherichia coli ATCC 25922 assessed as inhibition of biofilm formation at 4XMIC measured after 24 hrs by crystal violet staining based analysis; assay type: functional
Staphylococcus aureus [30] = assay: Antibacterial activity against methicillin-resistant Staphylococcus aureus ATCC 33591 infected in Kunming mouse assessed as reduction in bacterial load in kidney at 10 mg/kg, ip for 2 days starting from 1 hr post-infection by hematoxylin-eosin staining based analysis; assay type: functional, organism-based; settings: time 2.0 day

Structure (SMILES)	solubility at 12 h [4] [µM]	MIC (Escherichia coli [6]) [µg/mL]	MIC (Staphylococcus aureus [7]) [µg/mL]	MIC (Staphylococcus aureus [8]) [µg/mL]	MIC [9] [µg/mL]	MIC (Staphylococcus aureus [10]) [µg/mL]	MIC (Staphylococcus aureus [11]) [µg/mL]	MIC (Staphylococcus aureus [12]) [µg/mL]	MIC (Salmonella enterica) [µg/mL]	MIC (Enterococcus) [µg/mL]	CC50 at 48 h [13] [µM]	MIC (Staphylococcus aureus [14]) [µg/mL]	MIC (Staphylococcus aureus [15]) [µg/mL]	CC50 at 48 h [16] [µM]	CC50 at 48 h [17] [µM]	MIC (Acinetobacter baumannii [18]) [µg/mL]	MIC (Klebsiella pneumoniae) [µg/mL]	MIC (Escherichia coli [19]) [µg/mL]	MIC (Staphylococcus aureus [20]) [µg/mL]	MIC (Acinetobacter baumannii [21]) [µg/mL]	also measured
C=C[C@]1(C)C[C@@H](OC(=O)CSCCN(CC)CC)[C@]2(C)[C@H](C)CC[C@]3(CCC(=O)[C@H]32)[C@@H](C)[C@@H]1O [TIAMULIN]	227 (≈ 112 µg/mL)																				MIC (Metamycoplasma hominis): 0.25 µg/mL (≈ 0.506 µM); MIC [1]: 0.125 µg/mL (≈ 0.253 µM); MIC [2]: 0.03 µg/mL (≈ 0.0608 µM); MIC [3]: 0.015 µg/mL (≈ 0.0304 µM); MIC (Mesomycoplasma hyorhinis): 0.03 µg/mL (≈ 0.0608 µM); MIC (Mycoplasmopsis synoviae): 2 µg/mL (≈ 4.05 µM); MIC (Mycoplasma genitalium): 0.03 µg/mL (≈ 0.0608 µM); MIC [5]: 0.125 µg/mL (≈ 0.253 µM)
Br.C=C[C@]1(C)C[C@@H](OC(=O)CSc2nc(-c3cc[n+](Cc4ccc([N+](=O)[O-])cc4)cc3)cs2)[C@]2(C)[C@H](C)CC[C@]3(CCC(=O)[C@H]32)[C@@H](C)[C@@H]1O	754	0.5	2	2	2	1	0.5	16	2	8	86.7	64	0.125	> 100	75.8	2	16	1	16	16	MIC (Pseudomonas aeruginosa): 8 µg/mL
C=C[C@]1(C)C[C@@H](OC(=O)CS[C@@H]2C[C@H]3CC[C@@H](C2)N3C)[C@]2(C)[C@H](C)CC[C@]3(CCC(=O)[C@H]32)[C@@H](C)[C@@H]1O [RETAPAMULIN]	289 (≈ 150 µg/mL)	32 (≈ 61.8 µM)	32 (≈ 61.8 µM)	32 (≈ 61.8 µM)	64 (≈ 124 µM)	32 (≈ 61.8 µM)	16 (≈ 30.9 µM)	64 (≈ 124 µM)	128 (≈ 247 µM)	> 128	83.8	128 (≈ 247 µM)	4 (≈ 7.73 µM)	> 100	76.5	4 (≈ 7.73 µM)	64 (≈ 124 µM)	32 (≈ 61.8 µM)	128 (≈ 247 µM)	64 (≈ 124 µM)	MIC (Pseudomonas aeruginosa): 128 µg/mL (≈ 247 µM)
C=C[C@]1(C)C[C@@H](OC(=O)CSC(C)(C)CNC(=O)[C@H](N)C(C)C)[C@]2(C)[C@H](C)CC[C@]3(CCC(=O)[C@H]32)[C@@H](C)[C@@H]1O [VALNEMULIN]	341 (≈ 193 µg/mL)	64 (≈ 113 µM)			64 (≈ 113 µM)	128 (≈ 227 µM)	8 (≈ 14.2 µM)		64 (≈ 113 µM)		65.4		4 (≈ 7.08 µM)	88	87.3	2 (≈ 3.54 µM)		16 (≈ 28.3 µM)			inhibition (INH) (Staphylococcus aureus [22]): 68.59%; ED50 (Staphylococcus aureus [23]; ATCC 33591, 168 h, time 7 day): 12.3 mg/kg; Activity (Staphylococcus aureus [23]; time 7.0 day): Dose-Dependent Effect; Activity (Staphylococcus aureus [24]): Active; Activity (Staphylococcus aureus [25]): Active; inhibition (INH) (Escherichia coli [26]): 26.52%; inhibition (INH) (Staphylococcus aureus [27]): 38.1%; Activity (Staphylococcus aureus [28]): Active; inhibition (INH) (Escherichia coli [29]): 64.02%; Activity (Staphylococcus aureus [30]): Active
